For 44 molecules, IC50 results are on record in patent US12617773B2, “Azetidin-3-ylmethanol derivatives as CCR6 receptor modulators” (Idorsia Pharmaceuticals Ltd, priority 2020, dated 2026).

Usually IC50 stands for the point on the concentration scale where inhibition reaches its midpoint.

The target in this assay is T1, human CCR6 (Homo sapiens, UniProt P51684).
T1 construct: expressed in transfected cells; host or cells: HEK-293
T1 sequence (P51684 1-374): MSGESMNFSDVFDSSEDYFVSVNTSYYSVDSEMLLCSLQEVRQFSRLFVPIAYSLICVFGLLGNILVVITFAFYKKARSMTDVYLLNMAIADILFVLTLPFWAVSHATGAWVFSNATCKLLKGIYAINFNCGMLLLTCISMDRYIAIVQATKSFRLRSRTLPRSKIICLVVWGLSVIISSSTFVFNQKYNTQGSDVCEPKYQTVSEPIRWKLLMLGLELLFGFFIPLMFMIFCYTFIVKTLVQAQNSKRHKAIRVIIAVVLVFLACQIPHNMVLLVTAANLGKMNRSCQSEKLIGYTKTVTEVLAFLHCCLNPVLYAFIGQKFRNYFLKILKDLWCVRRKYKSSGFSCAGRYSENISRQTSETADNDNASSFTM
Kind of assay: FLIPR assay (inhibition of CCL20-induced calcium signal). Type of assay: cell-based. Conditions: HEK-293 cells expressing human CCR6; mean values where determined several times; read-out: FLIPR IC50. How it is done:
FLIPR assay: The bioactivity of compounds is tested in a fluorometric imaging plate reader (FLIPR: Molecular Devices) using engineered HEK-293 cells expressing the human CCR6 (GenBank: AY242126). Frozen cells are plated on Poly-L-Lysine precoated 384-well plates 2 days prior to bioassay in DMEM medium supplemented with 10% FCS and 1% Penicillin-Streptomycin. […] This buffer, but lacking the dye, is also used for washing and compound dilution steps (assay buffer). Cells are washed free of excess dye with a wash-station (Biotek), leaving 40 microliter of assay buffer at the end. Cells were incubated for 15 minutes at room temperature in the dark, before adding compounds. Stock solutions of test compounds are made up at a concentration of 10 mM in DMSO, and serially diluted first in DMSO and then transferred in assay buffer to concentrations required for inhibition dose response curves. After a 45-minute incubation period in assay buffer at room temperature, 10 microliters of each compound dilution are transferred from a compound plate to the plate containing the recombinant cells in the FLIPR instrument according to the manufacturer's instructions. After cells and compounds were preincubated for 30 minutes at room temperature in the dark, 10 microliter agonist CCL20 (Peprotech) at a final concentration of 10 nM is added, again using the FLIPR instrument. Changes in fluorescence are monitored before and after addition of the test compounds and agonist. Emission peak values above base level after CCL20 addition are exported after base line subtraction.
The calculated IC50 values may fluctuate depending on the daily assay performance. Fluctuations of this kind are known to those skilled in the art.
As for `CC(C)c1ccc([C@](O)(c2cncc(CCc3cnn(C)c3)c2)C2(C)CN(C)C2)cc1` [Example 58], the IC50 was found to be 440 nM.
As to `CC(C)c1ccc([C@](O)(c2cncc(CCC(O)c3ccccc3)c2)C2(C)CN(C)C2)cc1` (some centres unmarked) [Example 59], the concentration for half-maximal inhibition (IC50) was determined as 7.1 nM.
Regarding `CC(C)c1ccc(C(O)(c2cncc(CCC(C)(O)c3ccccc3)c2)C2(C)CN(C)C2)cc1` (centres unmarked) [Example 60], the IC50 is 9.06 nM.
In the case of `CC(C)c1ccc([C@](O)(c2cncc(CCC(O)C(C)C)c2)C2(C)CN(C)C2)cc1` (some centres unmarked) [Example 61] it was 19.4 nM; in that of `CC(C)c1ccc([C@](O)(c2cncc(CCC3(O)CCOCC3)c2)C2(C)CN(C)C2)cc1` [Example 62], 242 nM; in that of `CC(C)c1ccc([C@](O)(c2cncc(CCC(O)C3CCOCC3)c2)C2(C)CN(C)C2)cc1` (some centres unmarked) [Example 63], 601 nM.
In the case of `Cc1nn(C)cc1C(O)CCc1cncc([C@@](O)(c2ccc(C(C)C)cc2)C2(C)CN(C)C2)c1` (some centres unmarked) [Example 64] it was 441 nM; in that of `CC(C)c1ccc([C@](O)(c2cncc(CCC3CCOCC3)c2)C2(C)CN(C)C2)cc1` [Example 65], 44.7 nM; in that of `Cc1nc(C(O)CCc2cncc([C@@](O)(c3ccc(C(C)C)cc3)C3(C)CN(C)C3)c2)cs1` (some centres unmarked) [Example 66], 223 nM.
In the case of `CC(C)c1ccc([C@](O)(c2cncc(CCC(C)(O)c3cccc(F)c3)c2)C2(C)CN(C)C2)cc1` (some centres unmarked) [Example 67] it was 11.8 nM; in that of `COc1ccc(C(C)(O)CCc2cncc([C@@](O)(c3ccc(C(C)C)cc3)C3(C)CN(C)C3)c2)cc1` (some centres unmarked) [Example 68], 17.9 nM.
Consider `COc1ccccc1C(C)(O)CCc1cncc([C@@](O)(c2ccc(C(C)C)cc2)C2(C)CN(C)C2)c1` (some centres unmarked) [Example 69], for which the half-maximal inhibitory concentration (IC50) turned out to be 16.1 nM.
Take `CC(C)c1ccc([C@](O)(c2cncc(CCC(C)(O)c3ccn(C)n3)c2)C2(C)CN(C)C2)cc1` (some centres unmarked) [Example 70]: the IC50 was 434 nM.
The value for `Cc1nc(C(C)(O)CCc2cncc([C@@](O)(c3ccc(C(C)C)cc3)C3(C)CN(C)C3)c2)cs1` (some centres unmarked) [Example 71] was 147 nM.
The value for `COc1cccc(C(C)(O)CCc2cncc([C@@](O)(c3ccc(C(C)C)cc3)C3(C)CN(C)C3)c2)n1` (some centres unmarked) [Example 72] was 15 nM; that for `CC(C)c1ccc([C@](O)(c2cncc(CCC(C)(O)c3ncccn3)c2)C2(C)CN(C)C2)cc1` (some centres unmarked) [Example 73] was 112 nM; that for `Cc1cc(C(C)(O)CCc2cncc([C@@](O)(c3ccc(C(C)C)cc3)C3(C)CN(C)C3)c2)nn1C` (some centres unmarked) [Example 74] was 154 nM.
In the case of `Cc1cc(C(C)(O)CCc2cncc(C(O)(c3ccc(C(C)C)cc3)C3(C)CN(C)C3)c2)ncn1` (centres unmarked) [Example 75] it was 184 nM; in that of `Cc1cc(C(O)CCc2cncc([C@@](O)(c3ccc(C(C)C)cc3)C3(C)CN(C)C3)c2)nn1C` (some centres unmarked) [Example 76], 627 nM; in that of `CC(C)c1ccc([C@](O)(c2cncc(CCC3(O)CCCc4cccnc43)c2)C2(C)CN(C)C2)cc1` (some centres unmarked) [Example 77], 52.1 nM.
As for `CC(C)c1ccc([C@](O)(c2cncc(CCC3(O)CCc4cccnc43)c2)C2(C)CN(C)C2)cc1` (some centres unmarked) [Example 78], the IC50 turned out to be 80.6 nM.
As to `CCC(O)(CCc1cncc([C@@](O)(c2ccc(C(C)C)cc2)C2(C)CN(C)C2)c1)c1ccccn1` (some centres unmarked) [Example 79], the half-inhibitory concentration (IC50) is 30 nM.
In the case of `CCC(O)(CCc1cncc(C(O)(c2ccc(C(C)C)cc2)C2(C)CN(C)C2)c1)c1cccc(OC)n1` (centres unmarked) [Example 80] it was 10.5 nM; in that of `CC(C)c1ccc([C@](O)(c2cncc(CCc3cc4ccccc4[nH]3)c2)C2(C)CN(C)C2)cc1` [Example 81], 19.1 nM.
As to `CN1CC(C)([C@](O)(c2ccc(C3CC3)cc2)c2cncc(-c3nc(C4CCOCC4)no3)c2)C1` [Example 82, (R)-(4-Cyclopropyl-phenyl)-(1,3-dimethyl-azetidin-3-yl)-{5-[3-(tetrahydro-pyran-4-yl)-[1,2,4]oxadiazol-5-yl]-pyridin-3-yl}-methanol], the half-maximal inhibitory concentration (IC50) worked out at 185 nM.
In the case of `COCC(C)(C)c1noc(-c2cncc([C@@](O)(c3ccc(C4CC4)cc3)C3(C)CN(C)C3)c2)n1` [Example 83] it was 128 nM; in that of `CN1CC(C)([C@](O)(c2ccc(C3CC3)cc2)c2cncc(-c3nc(COC4CCC4)no3)c2)C1` [Example 84], 52.8 nM; in that of `CCCc1ccc([C@](O)(c2cncc(-c3nc(COC4CCOCC4)no3)c2)C2(C)CN(C)C2)cc1` [Example 85], 89.9 nM.
The value for `CCCc1ccc([C@](O)(c2cncc(-c3nc(C4CCOCC4)no3)c2)C2(C)CN(C)C2)cc1` [Example 86] was 75.3 nM.
The value for `CCCc1ccc([C@](O)(c2cncc(-c3nc(COC4CCC4)no3)c2)C2(C)CN(C)C2)cc1` [Example 87] was 61.5 nM; that for `CC(C)c1ccc([C@](O)(c2cncc(-c3nc(C4CCOCC4)no3)c2)C2(C)CN(C)C2)cc1` [Example 88] was 98.4 nM.
For `CC(C)c1ccc([C@](O)(c2cncc(-c3nc(CN4CCOCC4)no3)c2)C2(C)CN(C)C2)cc1` [Example 89], the half-maximal inhibitory concentration (IC50) came to 231 nM.
The value for `CC1CN(Cc2noc(-c3cncc([C@@](O)(c4ccc(C(C)C)cc4)C4(C)CN(C)C4)c3)n2)CC(C)O1` (some centres unmarked) [Example 90] was 163 nM; that for `CC(C)c1ccc([C@](O)(c2cncc(-c3nc(C4(C)CCOCC4)no3)c2)C2(C)CN(C)C2)cc1` [Example 91] was 46.2 nM; that for `CC(C)c1ccc([C@](O)(c2cncc(-c3nc([C@@H]4C[C@H]5CC[C@@H]4O5)no3)c2)C2(C)CN(C)C2)cc1` [Example 92] was 81.5 nM.
In the case of `CC(C)c1ccc([C@](O)(c2cncc(-c3nc(COC4CCOCC4)no3)c2)C2(C)CN(C)C2)cc1` [Example 93] it was 86.8 nM; in that of `CC(C)c1ccc([C@](O)(c2cncc(-c3nc(N4CCOCC4)no3)c2)C2(C)CN(C)C2)cc1` [Example 94, (R)-(1,3-Dimethyl-azetidin-3-yl)-(4-isopropyl-phenyl)-[5-(3-morpholin-4-yl-[1,2,4]oxadiazol-5-yl)-pyridin-3-yl]-methanol], 71.1 nM.
Consider `COC1(c2noc(-c3cncc([C@@](O)(c4ccc(C5CC5)cc4)C4(C)CN(C)C4)c3)n2)CCOCC1` [Example 95, (R)-(4-Cyclopropyl-phenyl)-(1,3-dimethyl-azetidin-3-yl)-{5-[3-(4-methoxy-tetrahydro-pyran-4-yl)-[1,2,4]oxadiazol-5-yl]-pyridin-3-yl}-methanol], for which the concentration for half-maximal inhibition (IC50) is 196 nM.
The value for `CN1CC(C)([C@](O)(c2ccc(C3CC3)cc2)c2cncc(-c3nc(C45CC(CO)(C4)C5)no3)c2)C1` [Example 96] was 130 nM; that for `CC(C)c1ccc([C@](O)(c2cncc(-c3nc(C45CC(CO)(C4)C5)no3)c2)C2(C)CN(C)C2)cc1` [Example 97] was 71.3 nM; that for `CC(C)c1ccc([C@](O)(c2cncc(-c3nc(C(C)(C)CO)no3)c2)C2(C)CN(C)C2)cc1` [Example 98] was 60 nM.
As to `CC(C)c1ccc([C@](O)(c2cncc(-c3nc(C(C)(C)O)no3)c2)C2(C)CN(C)C2)cc1` [Example 99], the half-inhibitory concentration (IC50) was determined as 111 nM.
With `COC(C)(C)c1noc(-c2cncc([C@@](O)(c3ccc(C(C)C)cc3)C3(C)CN(C)C3)c2)n1` [Example 100], the concentration for half-maximal inhibition (IC50) is 69.9 nM.
The value for `COC1(c2noc(-c3cncc([C@@](O)(c4ccc(C(C)C)cc4)C4(C)CN(C)C4)c3)n2)CCC1` [Example 101] was 41.8 nM.
